We go through 51 compounds from patent publication US8895559B2, “Quinoxalines derivatives and pharmaceutical compositions and kits” (Merck Patent GmbH, priority 2010, dated 2014).

The test system of the first test is PI3K. In words: Cellular testing of PI3K inhibitors: P-S473-PKB Luminex assay in PC3 cells. It is filed as cell-based. Conditions: PI3K-dependent phosphorylation of PKB at Serin 473 in PC3 cells. Here is the method: Description of the Method for the Cellular Testing of PI3K Inhibitors
The cellular assay for determination of the P-S473-PKB level is carried out as a Luminex assay in 96-well format in PC3 cells.
PC3 cells are sown out with 20,000 cells per well in 100 μl medium (45% RPMI1460/45% Ham's F12/10% FCS) and incubated on the following day for 30 min with a serial dilution of the test substance (7 concentrations) under serum-free conditions. […] The lysates are incubated overnight at 4° C. with shaking with Luminex beads to which an anti-total PKB antibody is coupled. The detection is carried out on the following day by addition of a P-S473-PKB antibody and a species-specific PE-labelled secondary antibody. The detection of P-S473-PKB is carried out by measurement in a Luminex 100 instrument by determination of 100 events per cavity in a measurement time of 60 sec. […] The values of the preparations treated with test substance are calculated from this as percent of control, and IC50 values are determined by means of RS1.
In general, IC50 refers to the midpoint of a concentration-inhibition curve. `COc1ccc(CCCO)c(Nc2nc3ccccc3nc2NS(=O)(=O)C2CCS(=O)(=O)C2)c1` (stereo not drawn) [reference compound] gave an IC50 of 970 nM.
Same read-out and setting: under `COc1cc(Nc2nc3ccccc3nc2NS(=O)(=O)c2cn(C)cn2)c(OCCS(C)(=O)=O)c(OC)c1` [drawing 161] stands 86 nM; under `COc1cc(Nc2nc3ccccc3nc2NS(=O)(=O)c2cn(C)c(CN(C)C)n2)c(OCCC(C)O)c(OC)c1` (stereo not drawn) [drawing 153], 4.6 nM; under `COc1ccc(CCO)c(Nc2nc3ccccc3nc2NS(C)(=O)=O)c1` [reference compound], 4900 nM.

Staying with this test, now noted: PI3 kinase inhibition, cell.
The compound `COc1cc(Nc2nc3ccccc3nc2NS(=O)(=O)c2ccc(CN3CCC3)cc2)c(OCCCO)c(OC)c1` [Compound A111, 4-Azetidin-1-ylmethyl-N-{3-[2-(3-hydroxypropoxy)-3,5-dimethoxyphenylamino]-quinoxalin-2-yl}-benzenesulfonamide] showed an IC50 of 100 to 10000 nM.
On the same count and under the same terms, in the case of `COc1cc(Nc2nc3ccccc3nc2NS(C)(=O)=O)c(OCCC(C)O)c(OC)c1` (stereo not drawn) [Compound A99] it was 1 to 100 nM; in that of `COc1cc(Nc2nc3ccccc3nc2NS(=O)(=O)c2cccc(C#N)c2)c(OCCOCCO)c(OC)c1` [Compound A63], 100 to 10000 nM; in that of `CCOC(=O)Nc1ccc(S(=O)(=O)Nc2nc3ccccc3nc2Nc2cc(OC)cc(OC)c2OCCCO)cc1` [Compound A34], 100 to 10000 nM.
With `COc1cc(Nc2nc3ccccc3nc2NS(=O)(=O)c2cn(C)cn2)c2occc2c1` [Compound A16, 1-Methyl-1H-imidazole-4-sulfonic acid [3-(5-methoxybenzofuran-7-ylamino)quinoxalin-2-yl]amide], the IC50 was more than 10000 nM.
On the same count and under the same terms, under `COc1cc(Nc2nc3ccccc3nc2NS(=O)(=O)c2ccc(C(=O)N(C)C)cc2)c(OC)c(OC)c1` [Compound A90] stands 100 to 10000 nM; under `COc1cc(C)c(OC)c(Nc2nc3ccccc3nc2NS(=O)(=O)c2cn(C)cn2)c1` [Compound A11], 100 to 10000 nM; under `COc1cc(Nc2nc3ccccc3nc2NS(=O)(=O)c2cn(C)cn2)c(OCC(C)CO)c(OC)c1` (stereo not drawn) [Compound A32], 100 to 10000 nM.
The compound `COc1cc(Nc2nc3ccccc3nc2NS(=O)(=O)c2ccn(C)n2)c(OCCOCCO)c(OC)c1` [Compound A112] gave an IC50 of 100 to 10000 nM.
The compound `COc1cc(Nc2nc3ccccc3nc2NS(=O)(=O)c2cn(C)cn2)c(OCCC(C)O)c(OC)c1` (stereo not drawn) [Compound A42] showed a half-maximal inhibitory concentration (IC50) of 1 to 100 nM.
Compound `COc1cc(Nc2nc3ccccc3nc2NS(=O)(=O)c2ccc(C#N)cc2)c(CCCN2CCS(=O)(=O)CC2)c(OC)c1` [Compound A3] showed a half-inhibitory concentration (IC50) of 1 to 100 nM.
On the same count and under the same terms, under `COc1cc(Nc2nc3ccccc3nc2NS(=O)(=O)C(F)F)c(OCCCO)c(OC)c1` [Compound A114] stands 100 to 10000 nM; under `CCN(CC)Cc1nc(S(=O)(=O)Nc2nc3ccccc3nc2Nc2cc(OC)cc(OC)c2OCCCO)cn1C` [Compound A126], 100 to 10000 nM.
Take `COc1cc(Nc2nc3ccccc3nc2NS(=O)(=O)c2ccccc2OC)c(OCCCO)c(OC)c1` [Compound A26]: the IC50 lay within 100 to 10000 nM.
In turn, `COc1cc(Nc2nc3ccccc3nc2NS(=O)(=O)c2ccn(C)n2)c(OCCC(C)(C)O)c(OC)c1` [Compound A125] had a half-maximal inhibitory concentration (IC50) of 1 to 100 nM.
On the same count and under the same terms, in the case of `COc1cc(Nc2nc3ccccc3nc2NS(=O)(=O)c2ccc(CN(C)C)cc2)c(OCCCO)c(OC)c1` [Compound A38, 4-dimethylaminomethyl-N-{3-[2-(3-hydroxypropoxy)-3,5-dimethoxyphenylamino]quinoxalin-2-yl}benzenesulfonamide] it was 1 to 100 nM; in that of `COc1cc(Nc2nc3ccccc3nc2NS(=O)(=O)c2ccc(C#N)cc2)c(OCCN2CCOCC2)c(OC)c1` [Compound A70], 1 to 100 nM.
For `COCCOCCOc1c(Nc2nc3ccccc3nc2NS(=O)(=O)c2ccc(C#N)cc2)cc(OC)cc1OC` [Compound A48], the IC50 lay within 1 to 100 nM.
In turn, `COc1cc(Nc2nc3ccccc3nc2NS(=O)(=O)c2cn(C)cn2)c(OCCN2CCOCC2)c(OC)c1` [Compound A54] showed a half-maximal inhibitory concentration (IC50) of 100 to 10000 nM.
Compound `COc1cc(Nc2nc3ccccc3nc2NS(=O)(=O)c2cccnc2)c(OCCS(=O)(=O)CCO)c(OC)c1` [Compound A67] yielded an IC50 of 100 to 10000 nM.
Turning to `COc1cc2c(c(Nc3nc4ccccc4nc3NS(=O)(=O)c3cn(C)cn3)c1)OC(CO)C2` (stereo not drawn) [Compound A5], the IC50 lay in the range of 100 to 10000 nM.
On the same count and under the same terms, in the case of `COc1cc(Nc2nc3ccccc3nc2NS(=O)(=O)c2cccc(C(=O)NCC(F)(F)F)c2)c(OCCCO)c(OC)c1` [Compound A105] it was 100 to 10000 nM; in that of `COc1cc(Nc2nc3ccccc3nc2NS(=O)(=O)C(F)(F)F)c(OC)c(OC)c1` [Compound A40], 1 to 100 nM.
As to `COc1cc(Nc2nc3ccccc3nc2NS(=O)(=O)c2cn(C)c(CN(C)C)n2)c(OC)c(OC)c1` [Compound A31], the 50% inhibitory concentration (IC50) lay in the range of 100 to 10000 nM.
Still for that read-out and setting: under `COc1cc(Nc2nc3ccccc3nc2NS(=O)(=O)c2cn(C)cn2)c(OCC(O)CO)c(OC)c1` (stereo not drawn) [Compound A75] stands 100 to 10000 nM; under `COc1cc(Nc2nc3ccccc3nc2NS(=O)(=O)c2cnn(CCN(C)C)c2)c(OCCCO)c(OC)c1` [Compound A23, 1-(2-Dimethylamino-ethyl)-1H-pyrazole-4-sulfonic acid {3-[2-(3-hydroxypropoxy)-3,5-dimethoxy-phenylamino]quinoxalin-2-yl} amide], 100 to 10000 nM; under `COc1cc(Nc2nc3ccccc3nc2NS(=O)(=O)c2ccc(C(=O)N3CC(F)(F)C3)cc2)c(OCCCO)c(OC)c1` [Compound A98], 100 to 10000 nM.
With `COc1cc(Nc2nc3ccccc3nc2NS(=O)(=O)c2ccn(CC(=O)N(C)C)n2)c(OCCCO)c(OC)c1` [Compound A122], the 50% inhibitory concentration (IC50) was 1 to 100 nM.
With `COc1cc(Nc2nc3ccccc3nc2NS(=O)(=O)c2ccc(CN(C)C)cc2)c(OCCOCCO)c(OC)c1` [Compound A57, 4-Dimethylaminomethyl-N-(3-{2-[2-(2-hydroxy-ethoxy)ethoxy]-3,5-dimethoxyphenylamino}-quinoxalin-2-yl)benzenesulfonamide], the IC50 was 100 to 10000 nM.
The same measure, in the same setting: under `COc1cc(Nc2nc3ccccc3nc2NS(=O)(=O)c2cn(C)cn2)c(CCCCO)c(OC)c1` [Compound A7] stands 100 to 10000 nM; under `COc1cc(Nc2nc3ccccc3nc2NS(=O)(=O)C(F)(F)F)c(OCCCO)c(OC)c1` [Compound A39], 1 to 100 nM.
The compound `COc1cc(Nc2nc3ccccc3nc2NS(=O)(=O)c2ccn(CCN(C)C)n2)c(OCCC(C)O)c(OC)c1` (stereo not drawn) [Compound A129, 1-(2-Dimethylaminoethyl)-1H-pyrazole-3-sulfonic acid {3-[2-(3-hydroxybutoxy)-3,5-dimethoxy-phenylamino]quinoxalin-2-yl} amide] yielded an IC50 of 1 to 100 nM.
Compound `COc1cc(Nc2nc3ccccc3nc2NS(=O)(=O)c2ccn(CCN(C)C)n2)c(OCCCO)c(OC)c1` [Compound A130, 1-(2-Dimethylaminoethyl)-1H-pyrazole-3-sulfonic acid {3-[2-(3-hydroxypropoxy)-3,5-dimethoxy-phenylamino]quinoxalin-2-yl} amide] yielded a 50% inhibitory concentration (IC50) of 1 to 100 nM.
The same measure, in the same setting: under `COc1cc(Nc2nc3ccccc3nc2NS(=O)(=O)c2cccs2)c(OCCO)c(OC)c1` [Compound A66] stands 1 to 100 nM.
On to `COc1cc(Nc2nc3ccccc3nc2NS(C)(=O)=O)c(OCCCO)c(OC)c1` [Compound A25], for which the half-inhibitory concentration (IC50) lay in the range of 100 to 10000 nM.
Same read-out and setting: in the case of `COc1cc(Nc2nc3ccccc3nc2NS(=O)(=O)c2cn(C)c(CN(C)C)n2)c(OCCC(C)O)c(OC)c1` (stereo not drawn) [Compound A28] it was 1 to 100 nM; in that of `COc1cc(C)c(OC)c(Nc2nc3ccccc3nc2NS(=O)(=O)c2ccc(C(=O)N(C)C)cc2)c1` [Compound A12], 100 to 10000 nM; in that of `COc1cc(Nc2nc3ccccc3nc2NS(=O)(=O)c2ccc(C#N)s2)c(OCCS(C)(=O)=O)c(OC)c1` [Compound A41], 1 to 100 nM.
In turn, `COc1cc(Nc2nc3ccccc3nc2NS(=O)(=O)c2ccn(C(F)(F)C(=O)N(C)C)n2)c(OCCCO)c(OC)c1` [Compound A119] registered an IC50 of 100 to 10000 nM.
In the case of `COc1cc(Nc2nc3ccccc3nc2NS(=O)(=O)c2cnn(C)c2)c(OCCC(C)O)c(OC)c1` (stereo not drawn) [Compound A43], the concentration for half-maximal inhibition (IC50) was 100 to 10000 nM.
Still for that read-out and setting: in the case of `COc1cc(Nc2nc3ccccc3nc2NS(=O)(=O)c2ccc(CN3CC(F)(F)C3)cc2)c(OCCCO)c(OC)c1` [Compound A110, 4-(3,3-Difluoroazetidin-1-ylmethyl)-N-{3-[2-(3-hydroxypropoxy)-3,5-dimethoxyphenylamino]-quinoxalin-2-yl}benzenesulfonamide] it was 1 to 100 nM; in that of `COc1cc(Nc2nc3ccccc3nc2NS(=O)(=O)c2cccc(CN(C)C)c2)c(OCCCO)c(OC)c1` [Compound A109, 3-Dimethylaminomethyl-N-{3-[2-(3-hydroxy-propoxy)-3,5-dimethoxyphenylamino]quinoxalin-2-yl}benzenesulfonamide], 1 to 100 nM.
Same read-out and setting: under `COc1ccc(S(=O)(=O)Nc2nc3ccccc3nc2Nc2cc(OC)cc(OC)c2OCCOCCO)cc1` [Compound A61] stands 100 to 10000 nM; under `COc1cc(Nc2nc3ccccc3nc2NS(=O)(=O)c2cn(C)cn2)c(CCCN2CCS(=O)(=O)CC2)c(OC)c1` [Compound A4], 100 to 10000 nM; under `COc1cc(Nc2nc3ccccc3nc2NS(=O)(=O)C2CCS(=O)(=O)C2)c(OCCCO)c(OC)c1` (stereo not drawn) [Compound A35], 1 to 100 nM.
Still for that read-out and setting: in the case of `COc1cc(Nc2nc3ccccc3nc2NS(=O)(=O)c2ccc(C(=O)N3CCC3)cc2)c(OCCCO)c(OC)c1` [Compound A102] it was 1 to 100 nM.
Turning to `COc1cc(Nc2nc3ccccc3nc2NS(=O)(=O)c2cccc(C(=O)N3CC(F)(F)C3)c2)c(OCCCO)c(OC)c1` [Compound A107], the IC50 is 100 to 10000 nM.
